Reference: patent US9271957B2, “Methods of treating or preventing degenerative joint conditions, osteoarthritis, cartilage damage, and related disorders in companion animals” (HILL'S PET NUTRITION, INC., priority 2008, dated 2016)

Experiments:
[1] = test system: genes related to cartilage and energy metabolism; assay: Differential gene expression profile, whole blood RNA on canine 2 Affymetrix genechips; assay type: in vivo, dogs
From the text: A differential gene expression profile was studied between an AAFCO control food, a food containing fish oil, and a food containing lipoic acid. At a minimum of 1.3 fold change, a list of 1212 genes was generated compared to the AAFCO control and 1896 genes compared to the food containing fish oil at d 30.
RNA Extraction: Total RNAs were isolated from whole blood samples using the PAXgene RNA isolation kit. All measurements were done with the canine 2 Affymetrix genechips. For statistical analysis, all measurements were normalized with RMA. All analysis was preformed using Partek. An ANOVA t-test was performed for genes that are differentially expressed between the control and test foods were selected based on p-value cutoff 0.1, fold change >+/−1.3.
Table 4 illustrates the change in genes related to cartilage metabolism and energy metabolism in dogs after being fed a control diet compared with dogs fed a control plus lipoic acid.

canine bone cells = assay: Genes related to cartilage metabolism altered by lipoic acid in canine bone cells; assay type: in vivo, dogs; settings: 90 days
Plasma metabolomics = assay type: in vivo; settings: relative to control fed dogs
Method: Metabolomics: Plasma metabolites were analyzed and were compared as fold change relative to the control fed dogs.

[2] = Body fat of dogs fed food containing lipoic acid; assay type: in vivo; settings: dogs fed a food containing lipoic acid
From the text: These two markers are known to increase in dogs with osteoarthritis. […] In other words, dogs fed lipoic acid utilized available glucose more efficiently and shifted their metabolism towards mobilization of fat for energy use. […] The following tables show the difference in fat and weight as well as cartilage markers relative to treatment with lipoic acid.

cartilage markers [3] = assay: Serum cartilage (arthritic) markers measured in the blood by ELISA in dogs fed different foods; assay type: in vivo; settings: for CPII: blood, d 0 as covariate
Method: Thirty (30) dogs were used to determine the effect of lipoic acid when compared to an AAFCO control food or a test food containing fish oil.
Biomarker Measurements: Serum cartilage markers were measured using ELISA based kits to determine concentrations of cartilage markers. Day 0 was used as a covariate in the analysis to adjust for baseline values.
Table 2 illustrates the change in blood level of arthritic markers in dogs after being fed a control diet compared with dogs fed a control plus fish oil and a control plus lipoic acid for 30 days and measured again at day 90.
Table 6 illustrates arthritic makers measured in blood samples for dogs after being fed a control diet compared with dogs fed a pet food including lipoic acid for 90 days.

cartilage markers [4] = assay: as above; assay type: in vivo
[5] = lipoic acid vs. control, cartilage metabolism
[6] = lipoic acid vs. control, energy metabolism
[7] = lipoic acid vs. fish oil, cartilage metabolism
[8] = lipoic acid vs. fish oil, energy metabolism
[9] = vs a similar food without lipoic acid

## O=C(O)CCCC[C@@H]1CCSS1 (racemic) [Lipoic acid, lipoic acid]
[1]; dogs fed lipoic acid
  PDK4 gene expression: increasing
  glucose transporters gene expression: upregulation
[1]; [5]
  Fold change 12-lipooxygenase: −1.3
  Fold change Chondroitan sulfate synthase 1: 1.4
  Fold change Facilitated glucose transporter 9: 1.4
  Fold change Prolyl hydroxylase alpha 1: 1.4
  Fold change Prolyl hydroxylase alpha 2: 1.3
  Fold change TIMP1: 1.3
  Fold change chondroitan sulfate proteoglycan 2 (veriscan): 1.5
  Fold change heparin sulfate N-deacetylase/N-sulfotransferase 2: 1.3
[1]; [6]
  Fold change 5′ AMP alpha 1: 1.3
  Fold change 5′ AMP beta 1: 1.3
  Fold change 5′ AMP gamma 2: 1.4
  Fold change Facilitated glucose transporter 1: 1.3
  Fold change Facilitated glucose transporter 6: 1.3
  Fold change Fatty acid desaturase 1: 1.9
  Fold change Hexokinase 3: 1.3
  Fold change PDK4: 1.4
  Fold change PPAR gamma: 1.3
  Fold change Succinyl CoA ligase alpha: 1.3
[1]; [7]
  Fold change 12-lipooxygenase: −1.3
  Fold change ADAMTS-2: −1.3
  Fold change ADAMTS-10: −1.3
  Fold change ADAMTS-16: −1.3
  Fold change Chondroitan sulfate synthase 1: 1.3
  Fold change Facilitated glucose transporter 9: 1.4
  Fold change Fibronectin 1: 1.4
  Fold change Lysyl hydroxylase: 1.3
  Fold change MMP2: −1.3
  Fold change MMP7: −1.3
  Fold change N-acetylgalactosaminyl-transferase 1: 1.3
  Fold change Transforming growth factor beta receptor 1: 1.3
  Fold change chondroitan sulfate proteoglycan 2 (veriscan): 1.5
[1]; [8]
  Fold change 5′ AMP alpha 1: 1.3
  Fold change 5′ AMP beta 1: 1.3
  Fold change 5′ AMP gamma 2: 1.5
  Fold change Facilitated glucose transporter 1: 1.3
  Fold change Facilitated glucose transporter 6: 1.4
  Fold change Hexokinase 3: 1.3
  Fold change PDK4: 1.6
  Fold change PPAR gamma: 1.3
  Fold change SREBP-1: −1.3
  Fold change Succinyl CoA ligase alpha: 1.3
  Fold change Succinyl CoA ligase beta: 1.3
  Fold change cAMP responsice element modulator: 1.3
Canine bone cells
  Directional change MMP3 (1582602_at): down regulation and Down
  Directional change Prolyl 4-hydroxylase (1600479_at): up-regulation and up
  Directional change TIMP2 (1582708_at): up-regulation and up
Plasma metabolomics
  metabolite hydroxyproline in plasma: reduced
[2]
  Body fat: lost fat
Cartilage markers [3]; Day 30
  CPII: 986.28 ng/mL
Cartilage markers [3]; Day 90
  CPII: 848.0 ng/mL
Cartilage markers [3]; after 90 days
  immune status markers: decreased
Cartilage markers [3]; after a 30 day treatment period
  arthritic markers (i.e., CPII and CTXII): reduction
Cartilage markers [3]; after a 90 day period
  arthritic markers (i.e., CPII and CTXII): greater reduction
Cartilage markers [3]; [9]
  carboxy-terminal crosslinked telopeptide fragment of type II collagen: greater decrease
  type II collagen C-propeptide: greater decrease
Cartilage markers [4]; Day 30, without covariates
  Change CPII: −95.10
  Change CTXII: −5.60
Cartilage markers [4]; Day 90, without covariates
  Change CPII: −232.70
  Change CTXII: −0.59
